We go through four compounds from ChEMBL document CHEMBL6127031, “Novel multitarget directed ligands inspired by riluzole: A serendipitous synthesis of substituted benzo[b][1,4]thiazepines potentially useful as neuroprotective agents” (Bioorg Med Chem, 2024).

SMILES strings stand for the structures. Active and inactive are the calls of the source. No cut-off for these calls is given here.

The subject of data set [1] is Cerebral cortex. In words: Neuroprotective activity against OGD/R induced injury in male Wistar rat brain cortical slices assessed as reversal of LDH release at 0.001 to 10 uM by spectrophometric analysis. Type of data set: functional, tissue-based. The conditions noted are these: dose 0.001-10 µM. A general note: Release of lactate dehydrogenase indicates damage to the cell membrane.

Data set [2] deals with Cerebral cortex. In words: Neuroprotective activity against OGD/R induced injury in male Wistar rat brain cortical slices assessed as reversal of tissue water gain at 0.001 to 10 uM. As to conditions: dose 0.001-10 µM. In kind it is functional, tissue-based.
Data set [3] is described as follows: Permeability of the compound assessed as membrane retention rate by PAMPA method. Type of data set: ADME. On the technique in general: PAMPA measures passive passage across an artificial lipid membrane.
A short description of data set [4]: Apparent permeability of the compound in PBS buffer at pH 7.4 incubated for 4 hrs under shaking condition by LC-UV-MS analysis. In kind it is ADME. The conditions noted are these: not told.
For data set [5], the system named is SH-SY5Y. In words: Inhibition of K channel in human SH-SY5Y cells assessed as decrease in maximum conductance at 50 uM under +25 to +55 mV by whole-cell patch clamp assay relative to control. In kind it is cell-based. For orientation: In patch-clamp work, channel activity is measured electrically.
Data set [6] deals with SH-SY5Y. In words: Inhibition of Na channel in human SH-SY5Y cells assessed as normalized peak current density at 50 uM under -25 mV by whole-cell patch clamp assay. Type of data set: cell-based.
The subject of data set [7] is SH-SY5Y. In words: Inhibition of Na channel in human SH-SY5Y cells assessed as reduction in current amplitude at 50 uM by whole-cell patch clamp assay relative to control. Type of data set: cell-based.
Data set [8] concerns SH-SY5Y. In words: Inhibition of Na channel in human SH-SY5Y cells assessed as change in channel activation at 50 uM under -30 to + 20 mV by whole-cell patch clamp assay. Type of data set: cell-based.
Data set [9] concerns SH-SY5Y. The data set can be described thus: Inhibition of Na channel in human SH-SY5Y cells assessed as maximum conductance at 50 uM by whole-cell patch clamp assay relative to control. Type of data set: cell-based.
The test system of data set [10] is Cerebral cortex. In words: Neuroprotective activity against OGD/R induced injury in male Wistar rat brain cortical slices assessed as reversal of LDH release at 0.01 to 10 uM by spectrophometric analysis. As to conditions: dose 0.01-10 µM. Type of data set: functional, tissue-based.
Data set [11] concerns Cerebral cortex. The data set can be described thus: Neuroprotective activity against OGD/R induced injury in male Wistar rat brain cortical slices assessed as reversal of tissue water gain at 0.01 to 10 uM. In kind it is functional, tissue-based. The conditions noted are these: dose 0.01-10 µM.
Data set [12] deals with SH-SY5Y. In words: Inhibition of K channel in human SH-SY5Y cells assessed as change in channel activation at 50 uM under +25 to +55 mV by whole-cell patch clamp assay. Type of data set: cell-based.
Data set [13] has as its system SH-SY5Y. In words: Inhibition of K channel in human SH-SY5Y cells assessed as reduction in steady-state component of KDR current at 50 uM under +60mV by whole-cell patch clamp assay relative to control. In kind it is cell-based.
In data set [14] the test system is Cerebral cortex. In words: Neuroprotective activity against OGD/R induced injury in male Wistar rat brain cortical slices assessed as reversal of tissue water gain at 0.01 to 1 uM. In kind it is functional, tissue-based. The conditions noted are these: dose 0.01-1 µM.
Data set [15] concerns Cerebral cortex. The data set can be described thus: Neuroprotective activity against OGD/R induced injury in male Wistar rat brain cortical slices assessed as reversal of LDH release at 0.01 to 1 uM by spectrophometric analysis. The conditions noted are these: dose 0.01-1 µM. Type of data set: functional, tissue-based.
Data set [16] concerns Cerebral cortex. The data set can be described thus: Neuroprotective activity against OGD/R induced injury in male Wistar rat brain cortical slices assessed as effect on LDH release at 10 uM by spectrophometric analysis. Type of data set: functional, tissue-based.
Data set [17] relates to Cerebral cortex. The data set can be described thus: Neuroprotective activity against OGD/R induced injury in male Wistar rat brain cortical slices assessed as effect on tissue edema at 10 uM. In kind it is functional, tissue-based.
Data set [18] deals with Cerebral cortex. The data set can be described thus: Neuroprotective activity against OGD/R induced injury in male Wistar rat brain cortical slices assessed as effect on LDH release at 1 uM by spectrophometric analysis. In kind it is functional, tissue-based.

Regarding `N/C(=N\c1nc2ccc([N+](=O)[O-])cc2s1)N1CCCSc2cc([N+](=O)[O-])ccc21`, the outcome in the data set with Cerebral cortex [1] and with Cerebral cortex [2] was inactive.
Consider `CC(C)NCC(O)COc1cccc2ccccc12` (stereo not given) [PROPRANOLOL], for which the R% in data set [3] was 10.73%. In addition, in [4], the Papp – broadly, a coefficient for how fast a substance crosses the barrier – at 4 h stood at 17.2 ×10⁻⁶ cm/s.
For `N/C(=N\c1nc2ccccc2s1)N1CCCSc2ccccc21`, the inhibition (as a rule, the change of the read-out against control, counted positive when it falls) in the data set on SH-SY5Y [5] stood at 35%; in the data set on SH-SY5Y [7], 28.4%; in the data set with SH-SY5Y [9], 28.4%; in the data set on SH-SY5Y [13], 28.4%. The R% in [3] is 28.24%. The inhibition result in the data set on SH-SY5Y [6], in the data set with SH-SY5Y [8] and in the data set with SH-SY5Y [12] was “Active” each time. The Papp at 4 h in data set [4] stood at 17 ×10⁻⁶ cm/s. Moreover, the result with Cerebral cortex [10] and with Cerebral cortex [11] was Active.
On to `N/C(=N\c1nc2ccc(OC(F)(F)F)cc2s1)N1CCCSc2cc(OC(F)(F)F)ccc21`, for which, in the data set with Cerebral cortex [14], the outcome was Active. Moreover, the outcome with Cerebral cortex [15], with Cerebral cortex [16], with Cerebral cortex [17] and in the data set with Cerebral cortex [18] was inactive.
